Assay results from patent US20190099401A1, “METHOD FOR PROTECTING CORNEAL ENDOTHELIAL CELLS FROM THE IMPACT CAUSED BY AN EYE SURGERY” (priority 2017, published 2019).
Values joined by “and” are separate entries in the source; they are usually repeats but may differ in a detail not shown here. Identical values can stand only once.

Experiments:
ARPE19 cells = test: Oxidative stress test (cellular ROS detection assay kit); assay type: cell-based; details: after 5 days of culturing, FIG. 3
Description: (§1) The oxidative stress of ARPE19 and B4G12 cells were tested using cellular ROS detection assay kit (Deep Red Fluorescence, ab186029) after 5 days of culturing. The tested groups were the same as the abovementioned control group 1, control group 2, comparative group, and treatment group. The test results were shown in FIG. 3, wherein the red fluorescent light represented the existence of oxidative stress.

B4G12 cells = test: as above; assay type: cell-based; details: after 5 days of culturing, FIG. 3
Description: as §1

[1] = test system: corneal endothelial cells; test: Phacoemulsification in patients with low corneal endothelial cell density; assay type: in vivo; details: 28 days four times a day before phacoemulsification, one patient eye
Text: Please refer to the following Table. 1 showing the age and sex of the patients, concentration of ascorbic acid in the ophthalmic composition, cause of low corneal endothelial cell density (ECD), total energy of phacoemulsification, duration time of phacoemulsification, corneal endothelial cell density before and after the phacoemulsification, and the percentage of cell loss. […] The ratio of cell loss after may be down regulated to 6.2±1.9%.

[2] = test system: retinal pigment epithelial cell line (ARPE19); test: Cell experiment: paraquat-induced apoptosis, cell morphology; assay type: cell-based; details: for cell morphology (apoptosis, vesicle formation) / cell morphology (protective effect): FIG. 1
Description: (§2) In the present embodiment, retinal pigment epithelial cell line (ARPE19) and corneal endothelial cell line (B4G12) were subjected to the cell experiment. The B4G12 cells were cultured with the cell culture medium comprising Human Endothelial-SFM, 2% of fetal bovine serum (FBS), and 10 ng/ml of basic fibroblast growth factor (bFGF). The culture medium was changed every two days. The ARPE 19 cells were cultured with the cell culture medium comprising Dulbecco's Modified Eagle Medium Nutrient Mixture F-12 (DMEM-F12), 10% of FBS, 0.5% of ampicillin, and 0.125% of gentamycin. The culture medium was changed every two days.
(§3) 2 mM of paraquat was added to the culture medium of the ARPE19 cells, and 0.2 mM of paraquat was added to the culture medium of the B4G12 cells to induce apoptosis of the cells. 0.1, 0.5, 1.0, and 2.0 mM of ascorbic acid were then added respectively to the culture medium of the cells for 5 days and the cell morphologies thereof were shown in FIG. 1. […] Accordingly, the lowest effective concentration of ascorbic acid is 1.0 mM.
(§4) Further, ARPE19 cells and B4G12 cells were divided respectively into four groups, which comprises a control group 1 without added ascorbic acid or paraquat; a control group 2 added with ascorbic acid but without paraquat; a comparative group added with paraquat but without ascorbic acid; and a treatment group added with ascorbic acid and paraquat, wherein 1 mM of ascorbic acid were added to the control groups 2 and treatment groups, 2 mM of paraquat were added to the comparative group and the treatment group of ARPE19 cells, and 0.2 mM of paraquat were added to the comparative group and the treatment group of B4G12 cells.

[3] = test system: corneal endothelial cell line (B4G12); test: as above; assay type: cell-based; details: for cell morphology (apoptosis, vesicle formation) / cell morphology (protective effect): FIG. 1
Description: as §2, §3, §4

[4] = 1 mM ascorbic acid without paraquat
[5] = control group 2: 1 mM ascorbic acid without paraquat, FIG. 2

O=C1O[C@H]([C@@H](O)CO)C(O)=C1O [ascorbic acid]
oxidative stress (red fluorescence, ROS) (ARPE19 cells; 1 mM ascorbic acid + 2 mM paraquat): sufficiently decrease the oxidative stress caused by paraquat
oxidative stress (red fluorescence, ROS) (ARPE19 cells; [4]): did not increase significantly
oxidative stress (red fluorescence, ROS) (B4G12 cells; 1 mM ascorbic acid + 0.2 mM paraquat): sufficiently decrease the oxidative stress caused by paraquat
oxidative stress (red fluorescence, ROS) (B4G12 cells; [4]): did not increase significantly
Cell lost ([1]; 20 mg/cc ascorbic acid): 5.6% and 9.3%
Post-op corneal ECD ([1]; 20 mg/cc ascorbic acid): 981 cells/mm^2 and 1239 cells/mm^2
Cell lost ([1]; 50 mg/cc ascorbic acid): 3.6% and 5.3% and 8.6% and 8.0% and 7.6% and 6.2% and 5.5% (2×) and 6.9% and 5.1%
Post-op corneal ECD ([1]; 50 mg/cc ascorbic acid): 1355 cells/mm^2 and 983 cells/mm^2 and 1238 cells/mm^2 and 1119 cells/mm^2 and 1249 cells/mm^2 and 1181 cells/mm^2 and 1724 cells/mm^2 and 1112 cells/mm^2 and 1649 cells/mm^2 and 838 cells/mm^2
cell morphology (apoptosis, vesicle formation) ([2]; 0.1 mM ascorbic acid, 2 mM paraquat, 5 days): showed cell apoptosis and vesicle formation
cell morphology (apoptosis, vesicle formation) ([2]; 0.5 mM ascorbic acid, 2 mM paraquat, 5 days): showed cell apoptosis and vesicle formation
cell morphology (protective effect) ([2]; 1.0 mM ascorbic acid, 2 mM paraquat, 5 days): showed the protective effect for the cells
cell morphology (protective effect) ([2]; 2.0 mM ascorbic acid, 2 mM paraquat, 5 days): showed the protective effect for the cells
lowest effective concentration ([2]; 2 mM paraquat, 5 days): 1.0 mM
cell apoptosis [2, 5]: did not show significant cell apoptosis
cell apoptosis and cell vesicle generation ([2]; treatment group: 1 mM ascorbic acid + 2 mM paraquat, FIG. 2): cell apoptosis and cell vesicle generation were not significant
cell morphology (apoptosis, vesicle formation) ([3]; 0.1 mM ascorbic acid, 0.2 mM paraquat, 5 days): showed cell apoptosis and vesicle formation
lowest effective concentration ([3]; 0.2 mM paraquat, 5 days): 1.0 mM
cell morphology (apoptosis, vesicle formation) ([3]; 0.5 mM ascorbic acid, 0.2 mM paraquat, 5 days): showed cell apoptosis and vesicle formation
cell morphology (protective effect) ([3]; 1.0 mM ascorbic acid, 0.2 mM paraquat, 5 days): showed the protective effect for the cells
cell morphology (protective effect) ([3]; 2.0 mM ascorbic acid, 0.2 mM paraquat, 5 days): showed the protective effect for the cells
cell vesicles ([3]; control group 2: 1 mM ascorbic acid without paraquat (same in control group 1), FIG. 2): only some cell vesicles were generated
cell apoptosis [3, 5]: did not show significant cell apoptosis
cell apoptosis and cell vesicle generation ([3]; treatment group: 1 mM ascorbic acid + 0.2 mM paraquat, FIG. 2): cell apoptosis and cell vesicle generation were not significant
